Data taken from patent US7868013B2, “Cycloalkyl substituted pyrimidinediamine compounds and their uses” (Rigel Pharmaceuticals, Inc., priority 2004, dated 2011).
pIC50: −log10 of the molar value. Structures can show the parent of a compound that is named as a salt. Where two headings read alike, the source gives them in different places.

Tests used:
Format in all cases: cell-based
[1] = tested on: a variety of tumor cell types; test: In vitro antiproliferation assays against a variety of tumor cell types (stereoisomer comparison); conditions: for Inhibition of proliferation of a variety of tumor cell lines: in words
Protocol: Moreover, it has been discovered that the enantiomer corresponding to the (1R,2R,3S,4S) diastereomer of structural formula (IVa) is largely responsible for the potency of the exo-exo cis racemate.
(§1) Certain compounds were tested against other cell types for their ability to inhibit proliferation in standard antiproliferation assays.

[2] = tested on: H1299 (non-small cell lung carcinoma); test: In vitro antiproliferation assay, H1299 cells (TABLE 1 6 point assay; TABLE 2); conditions: H1299 cells, read-out: IC50, H1299 cells
Protocol: as §1

A549 (lung carcinoma) = test: In vitro antiproliferation assay, A549 cells (TABLE 1 6 point assay; TABLE 2); conditions: A549 cells, read-out: IC50, A549 cells
Protocol: as §1

[3] = Homo sapiens, NCI-H1299, 6 point assay
[4] = Homo sapiens, A549, 6 point assay
[5] = 6 point assay, Bis Hydrochloride Salt

| Compound | pIC50 [2, 3] | pIC50 (A549 (lung carcinoma); [4]) | other results |
| --- | --- | --- | --- |
| Cc1cc(Nc2ncc(F)c(NC3C4C=CC(C4)C3C(N)=O)n2)ccc1N1CCN(C)CC1 (racemic) [cis exo-exo racemate, N4-(3-aminocarbonylbicyclo[2.2.1]hept-5-en-2-yl)-5-fluoro-N2-[3-methyl-4-(4-methylpiperazin-1-yl)phenyl]-2,4-pyrimidinediamine] |  |  | Potency relative to the cis endo-endo racemate ([1]; cis exo-exo racemate, all cell lines tested): approximately twenty-fold more potent |
| Cc1cc(Nc2ncc(F)c(NC3C4C=CC(C4)C3C(N)=O)n2)ccc1N1CCN(C)CC1 [(1S,2S,3R,4R) diastereomer, N4-(3-aminocarbonylbicyclo[2.2.1]hept-5-en-2-yl)-5-fluoro-N2-[3-methyl-4-(4-methylpiperazin-1-yl)phenyl]-2,4-pyrimidinediamine] |  |  | IC50s when tested as isolated stereoisomers ([1]; range in words, same cell lines): micromolar range |
| Cc1cc(Nc2ncc(F)c(NC3CCCC3C(N)=O)n2)ccc1N1CCN(C)CC1 [cis (1R,2S), N4-(2-aminocarbonylcyclopent-1-yl)-5-fluoro-N2-[4-(4-methylpiperazin-1-yl)-3-methylphenyl]-2,4-pyrimidinediamine] |  |  | Inhibition of proliferation of a variety of tumor cell lines [1]: inhibit the proliferation |
| Cc1cc(Nc2ncc(F)c(NC3CCCC3C(N)=O)n2)ccc1N1CCN(C)CC1 [cis (1S,2R), N4-(2-aminocarbonylcyclopent-1-yl)-5-fluoro-N2-[4-(4-methylpiperazin-1-yl)-3-methylphenyl]-2,4-pyrimidinediamine] |  |  | Inhibition of proliferation of a variety of tumor cell lines [1]: inhibit the proliferation |
| Cc1cc(Nc2ncc(F)c(NC3(C(=O)O)CCCC3)n2)ccc1N1CCN(C)CC1 [compound 246, N4-(1-Carboxycyclopent-1-yl)-5-fluoro-N2-[3-methyl-4-(4-methylpiperazin-1-yl)phenyl]-2,4-pyrimidinediamine] | < 5.00 | < 5.00 |  |
| Cc1cc(Nc2ncc(F)c(NC3(C(=O)NC4CC4)CCCC3)n2)ccc1N1CCN(C)CC1 [compound 247, N4-(1-Cyclopropylaminocarbonylcyclopent-1-yl)-5-fluoro-N2-[3-methyl-4-(4-methylpiperazin-1-yl)phenyl]-2,4-pyrimidinediamine] | < 5.00 | < 5.00 |  |
| Cc1cc(Nc2ncc(F)c(NC3(C(N)=O)CCCC3)n2)ccc1N1CCN(C)CC1 [compound 248, N4-(1-Aminocarbonylcyclopent-1-yl)-5-fluoro-N2-[3-methyl-4-(4-methylpiperazin-1-yl)phenyl]-2,4-pyrimidinediamine] | < 5.00 | < 5.00 |  |
| Cc1cc(Nc2ncc(F)c(N[C@@H]3[C@H]4CC[C@H](C4)[C@@H]3C(=O)NC3CC3)n2)ccc1N1CCN(C)CC1 [compound 253, (1S,2R,3S,4R)-N4-(3-N-Cyclopropylaminocarbonylbicyclo[2.2.1]hept-2-yl)-5-fluoro-N2-[3-methyl-4-(4-methylpiperazin-1-yl)phenyl]-2,4-pyrimidinediamine] | 6.00 to 7.00 | 6.00 to 7.00 |  |
| Cc1cc(Nc2ncc(F)c(NC3C4CC5CC(C4)CC3C5)n2)ccc1N1CCN(C)CC1 (stereo not shown) [compound 258, N4-(2-Adamantyl)-5-fluoro-N2-[3-methyl-4-(4-methylpiperazin-1-yl)phenyl]-2,4-pyrimidinediamine] | 5.00 to 6.00 | 5.00 to 6.00 |  |
| Cc1cc(Nc2ncc(F)c(NC34CC5CC(CC3C5)C4)n2)ccc1N1CCN(C)CC1 [compound 259, 5-Fluoro-N2-[3-methyl-4-(4-methylpiperazin-1-yl)phenyl]-N4-(3-noradamantyl)-2,4-pyrimidinediamine] | 5.00 to 6.00 | 5.00 to 6.00 |  |
| CCS(=O)(=O)N1CCN(c2ccc(Nc3ncc(F)c(N[C@H]4[C@@H](C(N)=O)[C@@H]5C=C[C@H]4C5)n3)cc2C)CC1 [compound 269, (1R,2R,3S,4S)-N4-(3-Aminocarbonylbicyclo[2.2.1]hept-5-en-2-yl)-N2-[3-methyl-4-(4-ethylsulfonylpiperazin-1-yl)phenyl]-5-fluoro-2,4-pyrimidinediamine] |  |  | pIC50 ([2]; 6 point assay): ≥ 7.00; pIC50 (A549 (lung carcinoma); 6 point assay): ≥ 7.00 |
| CCS(=O)(=O)N1CCN(c2ccc(Nc3ncc(F)c(N[C@H]4[C@@H](C(N)=O)[C@@H]5C=C[C@H]4C5)n3)cc2C)CC1 [compound 270, (1R,2R,3S,4S)-N4-(3-aminocarbonylbicyclo[2.2.1]hept-5-ene-2-yl)-N2-[3-methyl-4-(4-ethylsulfonylpiperazin-1-yl)phenyl]-5-fluoro-2,4-pyrimidinediamine Bis Hydrochloride Salt] |  |  | pIC50 [2, 5]: 5.00 to 6.00; pIC50 (A549 (lung carcinoma); [5]): 5.00 to 6.00 |
| NC(=O)[C@@H]1[C@H](Nc2nc(Nc3ccc(C4CCNCC4)cc3)ncc2F)[C@H]2C=C[C@@H]1C2 [compound 273, (1R,2R,3S,4S)-N4-(3-Aminocarbonylbicyclo[2.2.1]hept-5-en-2-yl)-5-fluoro-N2-[4-(piperidin-4-yl)phenyl]-2,4-pyrimidinediamine] | 6.00 to 7.00 | ≥ 7.00 |  |
| Cc1cc(Nc2ncc(F)c(NC3CCCC3C(N)=O)n2)ccc1N1CCN(C)CC1 [trans (1R,2R) diastereomer, N4-(2-aminocarbonylcyclopent-1-yl)-5-fluoro-N2-[4-(4-methylpiperazin-1-yl)-3-methylphenyl]-2,4-pyrimidinediamine] |  |  | Inhibition of proliferation of a variety of tumor cell lines [1]: inhibit the proliferation |
| Cc1cc(Nc2ncc(F)c(NC3CCCC3C(N)=O)n2)ccc1N1CCN(C)CC1 [trans (1S,2S) diastereomer, N4-(2-aminocarbonylcyclopent-1-yl)-5-fluoro-N2-[4-(4-methylpiperazin-1-yl)-3-methylphenyl]-2,4-pyrimidinediamine] |  |  | Inhibition of proliferation of a variety of tumor cell lines [1]: relatively inactive |

Further lines, with some results ahead:

| pIC50 [2, 3] | pIC50 (A549 (lung carcinoma); [4]) | Compound | other results |
| --- | --- | --- | --- |
| < 5.00 | 5.00 to 6.00 | Cc1cc(Nc2ncc(F)c(NC3(C(N)=O)CC=CC3)n2)ccc1N1CCN(C)CC1 [compound 238, N4-(1-Aminocarbonylcyclopent-3-ene-1-yl)-5-fluoro-N2-[3-methyl-4-(4-methylpiperazin-1-yl)phenyl]-2,4-pyrimidinediamine] |  |
| < 5.00 | < 5.00 | Cc1cc(Nc2ncc(F)c(NC3(C(=O)NC4CC4)CC=CC3)n2)ccc1N1CCN(C)CC1 [compound 244, N4-(1-Cyclopropylaminocarbonylcyclopent-3-en-1-yl)-5-fluoro-N2-[3-methyl-4-(4-methylpiperazin-1-yl)phenyl]-2,4-pyrimidinediamine] |  |
| ≥ 7.00 | ≥ 7.00 | Cc1cc(Nc2ncc(F)c(N[C@H]3[C@@H](C(N)=O)[C@@H]4C=C[C@H]3C4)n2)ccc1NC1CCN(C)CC1 [compound 272, (1R,2R,3S,4S)-N4-(3-Aminocarbonylbicyclo[2.2.1]hept-5-en-2-yl)-5-fluoro-N2-(3-methyl-4-(1-methylpiperidin-4-ylamino)phenyl]-2,4-pyrimidinediamine] |  |
| ≥ 7.00 | ≥ 7.00 | NC(=O)[C@@H]1[C@H](Nc2nc(Nc3cccc(C4CCNCC4)c3)ncc2F)[C@H]2C=C[C@@H]1C2 [compound 274, (1R,2R,3S,4S)-N4-(3-Aminocarbonylbicyclo[2.2.1]hept-5-en-2-yl)-5-fluoro-N2-[3-(piperidin-4-yl)phenyl]-2,4-pyrimidinediamine] |  |
| ≥ 7.00 | ≥ 7.00 | CN1CCC(c2cccc(Nc3ncc(F)c(N[C@H]4[C@@H](C(N)=O)[C@@H]5C=C[C@H]4C5)n3)c2)CC1 [compound 275, (1R,2R,3S,4S)-N4-(3-Aminocarbonylbicyclo[2.2.1]hept-5-en-2-yl)-5-fluoro-N2-[3-(1-methylpiperidin-4-yl)phenyl]-2,4-pyrimidinediamine] |  |
